# Patent US20260167927A1, “GLOMUS CELL-LIKE CELLS AND PRODUCTION METHOD THEREOF” (NATIONAL INSTITUTE OF ADVANCED INDUSTRIAL SCIENCE AND …, priority 2022, published 2026)
# Tested on: glomus cell-like cells
# Assay: ATP production by glomus cell-like cells in response to hypoxic stimulation with ion channel inhibitors
# Format: cell-based, human
# Conditions: for effect on ATP production in response to hypoxic stimulation: 2% O2, 10 to 30 minutes, vs KRB without inhibitor
# Protocol: Glomus cell-like cells on days 16 to 19 of induction were used. With Krebs-Ringer buffer (KRB: 120 mM of NaCl, 5 mM of KCI, 25 mM of NaHCO3, 2.5 mM of CaCI2, 1.1 mM of MgCl2, 0.1% bovine serum albumin, 2.8 mM of glucose, pH 7.2), glomus cell-like cells were washed twice. After adding KRB, the cells were incubated in a hypoxic CO2 incubator (2% O2) for 10 to 30 minutes. The supernatant was collected, and then ATP was measured using the ATP Determination Kit (Thermo Fisher Scientific: A22066). Cells were lysed in RIPA buffer (FUJIFILM Wako Pure Chemical Corporation: 182-02451), and the total protein content was determined using a Pierce™ BCA Protein Assay Kit (Thermo Fisher Scientific: 23225). ATP measurement results were corrected according to the total protein content.
# Using KRB containing the K^+ channel inhibitor tetraethylammonium chloride (FUJIFILM Wako Pure Chemical Corporation: 206-04501) (final concentration: 5 mM), the Ca^2+ channel inhibitor nifedipine (FUJIFILM Wako Pure Chemical Corporation: 141-05783) (final concentration: 5 μM), or the Na^+ channel inhibitor lidocaine (FUJIFILM Wako Pure Chemical Corporation: 120-02691) (final concentration: 1 μM), cells were subjected to hypoxic stimulation using the procedure described in (3-1) above, and the amount of ATP production was analyzed. KRB without ion channel inhibitors was used as a control to analyze ATP production similarly.
molecule,measurement,setting,value
CC[N+](CC)(CC)CC.[Cl-] [tetraethylammonium chloride],effect on ATP production in response to hypoxic stimulation,tetraethylammonium chloride 5 mM in KRB,promoting effect
apyrase,ATP detected after hypoxic stimulation,"apyrase (ATPase) 2 U/mL added, FIG. 11",no ATP was detected
"CCN(CC)CC(=O)Nc1c(C)cccc1C [lidocaine, Lidocaine]",effect on ATP production in response to hypoxic stimulation,lidocaine 1 μM in KRB,inhibitory effect
